Results: PMC9080489, “Synthesis and biological evaluation of 2-aryl-benzimidazole derivatives of dehydroabietic acid as novel tubulin polymerization inhibitors” (RSC Advances, 2018)

Columns and labels:
SMMC-7721 cells = assay: ROS generation assay (DCFH-DA); format: cell-based, human; details: 0.2, 0.5, 1 and 2 μM, 24 h
Experimental: Reactive oxygen species (ROS) are highly harmful elements to cells as they exert oxidative stress and finally cause cellular damage. Excessive ROS generation renders cells vulnerable to apoptosis.[39] To determine whether compound 6j triggers ROS generation in SMMC-7721 cells to induce apoptosis, the cells were treated with different concentrations (0, 0.2, 0.5, 1 and 2 μM) of compound 6j for 24 h, and the ROS generation was evaluated using the fluorescent probe 2,7-dichlorofluorescein diacetate (DCF-DA) by fluorescence microscopy. […] This phenomenon implied that the increment of ROS might play an important role as an early mediator in compound 6j-induced apoptosis.
ROS generation assay was performed by using the reactive oxygen species assay kit (Beyotime Biotech., China). Intracellular ROS generation was tested through dichlorodihydro fluorescein diacetate (DCFH-DA) assay. DCFH-DA is taken up by SMMC-7721 cells, and then activated by esterase-mediated cleavage of acetate to form dichlorodihydro fluorescein (DCFH), which is trapped in the cells. DCFH is converted to fluorescein DCF in the presence of ROS. SMMC-7721 cells were seeded in six-well plates and incubated with different concentrations of compound 6j for 24 h. […] Immediately after light exposure, cell images were acquired through an inverted fluorescence microscope (Olympus 1X71 Inverted System Microscope, Olympus, Japan).

[1] = system: human cervical carcinoma cell line (HeLa); assay: MTT cytotoxic assay, HeLa; format: cell-based; details: MTT, 48 h exposure, read-out: IC50 HeLa
Experimental: The in vitro antiproliferative activity of DAA derivatives (1–5, 6a–k, 7a–k) were evaluated by MTT assay against human hepatocarcinoma cell line (SMMC-7721), human breast cancer cell line (MDA-MB-231), human cervical carcinoma cell line (HeLa), mouse colon cancer cell line (CT-26) and human normal hepatocyte cell line (QSG-7701). Nocodazole was co-assayed as the positive control and DMEM culture medium containing 0.1% DMSO was used as negative control. The results of the tested compounds expressed as IC50 values (concentration required to inhibit tumor cell proliferation by 50%) were presented in Table 1.
The human hepatocarcinoma cell line (SMMC-7721), human breast cancer cell line (MDA-MB-231), human cervical carcinoma cell line (HeLa), mouse colon cancer cell line (CT-26) and human normal hepatocyte cells (QSG-7701) used in this study were all obtained from Keygene Biotech., China. These cell lines were maintained in DMEM medium supplemented with 10% heat-inactivated fetal bovine serum in a humidified atmosphere of 5% CO2 at 37 °C.
The in vitro cytotoxic activities of the benzimidazole derivatives of dehydroabietic acid were evaluated against tested cell lines via the MTT colorimetric method. Briefly, different tumor cells were grown in DMEM medium supplemented with 10% fetal bovine serum, penicillin (100 U mL^−1), and streptomycin (50 μg mL^−1). Cells were harvested at log phase of growth and seeded in 96-well plates (100 μL per well at a density of 2 × 10^5 cells mL^−1). After 24 h incubation at 37 °C and 5% CO2 to allow cell attachment, cultures were exposed to various concentrations of the isolated compounds for 48 h. Finally, MTT solution (2.5 mg mL^−1 in PBS) was added (40 μL per well). Plates were further incubated for 4 h at 37 °C, and the formazan crystals formed were dissolved by adding 150 μL per well of DMSO. Absorption at 570 nm was measured with an ELISA plate reader. The results were expressed as IC50 values with standard deviations, which was defined as the concentration at which 50% survival of cells was discerned. Nocodazole was co-assayed as positive control.

COC(=O)[C@]1(C)CCC[C@]2(C)c3cc(Br)c4nc(-c5ccc6[nH]ccc6c5)[nH]c4c3CCC12 (some centres unmarked) [Compound 6j, Methyl 2′-(1H-indol-5-yl)-12-bromo-13,14-imidazolyl-deisopropyl-dehydroabietate]
ROS generation (DCF green fluorescence) (SMMC-7721 cells): significantly induced ROS generation
IC50 [1]: 0.23 ± 0.05 µM
